Measured values from patent publication US20220170028A1, “NOVEL INTERLEUKIN-2 VARIANTS AND BIFUNCTIONAL FUSION MOLECULES THEREOF” (Cugene Inc, priority 2019, published 2022).

Assays:
[1] = Transient expression level of IL-2 Fc fusion constructs in HEK-293F cells; conditions: Isoleucine-125 constructs
Procedure: The constructs were produced by co-transfecting HEK293-F cells growing in suspension with the mammalian expression vectors using polyethylenimine (PEI, 25,000 MW linear, Polysciences). If there were two or more expression vectors, the vectors were transfected in a 1:1 ratio. For transfection, HEK293 cells were cultivated in serum free FreeStyle™ 293 Expression Medium (ThermoFisher). For production in 1000 ml shaking flasks (working volume 330 mL), HEK293 cells were seeded at a density of 0.8×10^6 cells/ml 24 hours before transfection. A total of 330 μg of DNA expression vectors were mixed with 16.7 ml Opti-mem Medium (ThermoFisher). After addition of 0.33 mg PEI diluted in 16.7 ml Opti-mem Medium, the mixture was vortexed for 15 sec and subsequently incubated for 10 min at room temperature. The DNA/PEI solution was then added to the cells and incubated at 37° C. in an incubator with 8% CO2. Sodium butyrate (Millipore Sigma) was added to the cells at day 4 at a final concentration of […] to help sustain protein expression. After 6 days cultivation, supernatant was collected for purification by centrifugation for 20 min at 2200 rpm. The solution was sterile filtered (0.22 μm filter, Corning). The secreted protein was purified from cell culture supernatants using Protein A affinity chromatography.
S125I substitution was thus introduced into a number of IL-2 variant Fc fusion molecules. The constructs harboring Ile-125 substitution in IL-2 were expressed using the same vector and in the same culturing conditions as their Ser-125 counterparts and purified using MabSelectSure. The expression level in mg/L and purity assessed by SEC chromatography in aggregation % of exemplary molecules are summarized in Table 6. The two molecules in the same row of Table 6 share the same other amino acid substitution(s) and differ only at residue 125 with either serine or isoleucine. As an example, the SEC chromatogram and SDS-PAGE pictures of P-0447 (SEQ ID NO: 173) and its Ile-125 counterpart P-0511 (SEQ ID NO: 213) were further illustrated in FIGS. 1D and 1E.

[2] = test system: CD4+ Treg vs CD4+ Tconv cells; test: STAT5 phosphorylation, selectivity / activity profile Treg versus CD4+ Tconv cells, human PBMC; format: cell-based
Outline: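 Fresh human PBMC from a healthy donor, serum-starved 1 h at 4 °C, then exposed to serial dilutions of IL-2 variants for 30 min at 37 °C. After fixation/permeabilization, cells stained for CD4, CD25, FOXP3 and pSTAT5 and analysed by flow cytometry. Treg (CD4+/Foxp3+/CD25high) and Tconv (CD4+/Foxp3−/CD25low) gated; read-out is percent pSTAT5-positive cells.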

Treg cells = test: Dose-response pharmacodynamics of Treg cells in mice after a single injection (Example 10); format: in vivo, mouse
Procedure: Following a single subcutaneous administration of vehicle (PBS) or P-0511 (1, 0.3, 0.1, or 0.03 mg/kg) to female Balb/C mice (n=5/group), peripheral blood was collected on day −2 as baseline, and post dose on days 3, 5, and 7. On day 7, mice were sacrificed, and spleens were harvested. Blood lymphocyte phenotyping, proliferation and expansion were measured by flow cytometry at each timepoint using fresh whole blood.

Substance: P-0511: IL-2 L19H/S125I/Q126E Fc fusion, SEQ ID NO: 213
- Expression [1]: 26.6 mg/L
- activity profile / selectivity window Treg over CD4+ Tconv (in words) [2]: further widened the Treg selectivity window
- Treg Selectivity ([2]; Isoleucine-125 constructs): Yes
- proliferation of Treg cells (percentage of Ki67 positive cells) (Treg cells; 0.03 mg/kg single s.c., Balb/C mice): minimal effect
- Treg/Tconv ratio at peak, based on cell count (Treg cells; 0.1 mg/kg): 0.06
- Treg as percentage of total lymphocytes at the peak (Treg cells; 0.1 mg/kg single dose): 1.4%
- Treg/Tconv ratio at peak, based on cell count (Treg cells; 0.3 mg/kg): 0.18
- Treg as percentage of total lymphocytes at the peak (Treg cells; 0.3 mg/kg single dose): 3.1%
- Treg/Tconv ratio at peak, based on cell count (Treg cells; 1 mg/kg): 0.27
- Treg as percentage of total lymphocytes at the peak (Treg cells; 1 mg/kg single dose): 4.5%
- proliferation of Treg cells (percentage of Ki67 positive cells) (Treg cells; 1, 0.3, or 0.1 mg/kg single s.c., Balb/C mice): dose-dependent increases
- expression of Treg functional markers CD25 and FoxP3 (MFI) (Treg cells; single s.c. dose, Balb/C mice): increased dose-dependently
